Legend:
Type in all cases: physicochemical
[1] = Absorption and fluorescence spectroscopy of CBN ether dimers (odd-even effect); conditions: FIG. 9
Text: A change in number of carbon atoms in the linker with respect to the fluorescence was observed. Absorption and fluorescence spectroscopy was used to evaluate this change with the different dimers and the results are provided in FIGS. 9-10. FIG. 9 is a stacked graph of fluorescence spectroscopy for the odd and even series of dimers of Example 12 (x-axis wavelength in nanometers; y-axis intensity) and FIG. 10 is a stacked graph of the absorption spectroscopy for the same dimers (x-axis wavelength in nanometers; y-axis intensity). […] By changing the number of carbons in linkers, it was observed that when the number of carbon spacer is odd (3C and 5C) the fluorescence is higher compared to the even (2C, 4C and 6C), and a distinct hump at higher wavelengths is observed for odd numbered linkers. This change in the spectra with changing the number of carbons is termed here as the “odd-even effect”.

[2] = Fluorescence viewed under long range UV light of 365 nm; conditions: excitation at 365 nm
Text: In fact, the fluorescence is tied to molecular structure as characterized by ^1H NMR. Phytocannabinoids THC and CBN, are fluorescent, with excitation at 365 nanometer (nm). When fluorescent, the CBN phenolic OH becomes broad meaning that it is in some way connected to the fluorescence of the molecule.

[3] = Fluorescence spectrometer analysis of cannabinoid monomers and adipate dimers
[4] = Stability of CBN observed by NMR
Text: In some embodiments, charge transfer complexes will quench fluorescence, and FRET as it will enhance fluorescence and cause a shift in color. Such adaptations provide, for example, for observation and understanding of a drug as it travels through the body, moves through a cell wall, and binds to a receptor site.

[5] = Fluorescence of CBN-aniline
Protocol: The synthesis of CBN-aniline was conducted via C—O bond using copper catalyst. The product was characterized by ^1H NMR. […] The CBN-aniline can be formed into dimers by linking through the aniline amine.

[6] = Fluorescence quenching by phenylenediamine isomers in acetone
Protocol: Experiments were conducted to investigate the fluorescence quenching of cannabinol 2C ether dimer (Example 12) in acetone upon mixing with different isomers of phenylenediamine: ortho-phenylenediamine, meta-phenylenediamine, and para-phenylenediamine. […] This quenching phenomenon can be attributed to the electronic interactions and spatial arrangements of the amino groups in the different phenylenediamine isomers. Both ortho- and para-phenylenediamine have amino groups positioned such that they can effectively engage in electron-donating and resonance interactions with the excited state of cannabinol 2C ether dimer, facilitating non-radiative relaxation pathways such as photoinduced electron transfer (PET).

CCCCCc1cc(OCCCOc2cc(CCCCC)cc3c2-c2cc(C)ccc2C(C)(C)O3)c2c(c1)OC(C)(C)c1ccc(C)cc1-2 [3C]
fluorescence, odd carbon spacer compared to the even (2C, 4C and 6C) [1]: higher

CCCCCc1cc(OCCCCCOc2cc(CCCCC)cc3c2-c2cc(C)ccc2C(C)(C)O3)c2c(c1)OC(C)(C)c1ccc(C)cc1-2 [5C]
fluorescence, odd carbon spacer compared to the even (2C, 4C and 6C) [1]: higher

C=C(C)[C@@H]1CCC(C)=C[C@H]1c1c(O)cc(CCCCC)cc1O [CBD, cannabidiol, reference compound]
fluorescence (fluorescent or not) [2]: lacking in fluorescence

CCCCCc1cc(O)c(C/C=C(\C)CCC=C(C)C)c(O)c1 [CBG, cannabigerol]
fluorescence (fluorescent or not) [2]: lacking in fluorescence

CCCCCc1cc(OC(=O)CCCCC(=O)Oc2cc(CCCCC)cc3c2-c2cc(C)ccc2C(C)(C)O3)c2c(c1)OC(C)(C)c1ccc(C)cc1-2 [CBN adipate dimer, DiCannabinol adipate]
fluorescence (fluorescent or not) [2]: fluorescent properties | maximum fluorescence, Wavelength (nm) [3]: 418 nm | fluorescence result compared among the cannabinoids tested ([3]; over THC adipate dimer): most promising results

CCCCCc1cc(O)c2c(c1)OC(C)(C)c1ccc(C)cc1-2 [CBN, cannabinol]
fluorescence (fluorescent or not) [2]: fluorescent | fluorescence (fluorescent or not) ([2]; listed as Cannabinol (CBN)): fluorescent properties | maximum fluorescence, Wavelength (nm) [3]: 385 nm | chemical stability [4]: remains CBN for long durations

CCCCCc1cc(Oc2ccc(N)cc2)c2c(c1)OC(C)(C)c1ccc(C)cc1-2 [CBN-aniline]
fluorescent properties [5]: exhibited fluorescent properties

CCCCCc1cc(O)c2c(c1)OC(C)(C)[C@@H]1CC=C(C)C[C@@H]21 [D-8 THC]
fluorescence (fluorescent or not) [2]: fluorescent properties | maximum fluorescence, Wavelength (nm) [3]: 380 nm

CCCCCc1cc2c(c(O)c1C(=O)O)[C@@H]1C=C(C)CC[C@H]1C(C)(C)O2 [D-9 THCA, Tetrahydrocannabinolic acid]
fluorescence (fluorescent or not) [2]: fluorescent properties

CCCCCc1cc(O)c2c(c1)OC(C)(C)[C@@H]1CCC(C)=C[C@@H]21 [THC, tetrahydrocannabinol, reference compound]
fluorescence (fluorescent or not) [2]: fluorescent

CCCCCc1cc(OCCOc2cc(CCCCC)cc3c2-c2cc(C)ccc2C(C)(C)O3)c2c(c1)OC(C)(C)c1ccc(C)cc1-2 [cannabinol 2C ether dimer, Dicannabinolethyleneether dimer]
fluorescence quenching with meta-phenylenediamine [6]: minimal quenching | fluorescence quenching with ortho-phenylenediamine [6]: significantly quenched | fluorescence quenching with para-phenylenediamine [6]: significantly quenched

CCCCCc1cc(OC(=O)CCCCC(=O)Oc2cc(CCCCC)cc3c2C2CC(C)=CCC2C(C)(C)O3)c2c(c1)OC(C)(C)C1CC=C(C)CC21 (stereo not drawn) [d-8 THC adipate dimer]
fluorescence (fluorescent or not) [2]: fluorescent properties | maximum fluorescence, Wavelength (nm) [3]: 384 nm

Source: patent US12480074B2, “Natural and synthetic cannabinoids as fluorescent tags; compositions, methods, and applications” (UNIVERSITY OF CONNECTICUT, priority 2023, dated 2025)
